Key:
[1] = Critical micelle concentration (CMC) by fluorescent dye diphenylhexatriene (DPH); type: physicochemical; conditions: DPH fluorescence
Experimental: A method of measuring the CMC is not particularly limited, but a method widely known in the art may be used, and for example, the CMC may be measured by a fluorescent staining method using diphenylhexatriene (DPH).
(§1) Specifically, the critical micelle concentrations (CMCs) were measured using a fluorescent dye, diphenylhexatriene (DPH), and the hydrodynamic radii (Rh) of micelles formed by each preparation (1.0 wt %) were determined by a dynamic light scattering (DLS) experiment. The measured results are shown in Table 1 compared to DDM which is an existing amphiphilic molecule (detergent).

[2] = Hydrodynamic radius (Rh) of micelles by dynamic light scattering (DLS); type: physicochemical; conditions: 1.0 wt % detergent
Experimental: A method of measuring the radius of micelle is not particularly limited, but a method widely known in the art may be used, and for example, the radius of micelle may be measured using a dynamic light scattering (DLS) experiment.
as §1

[3] = Solubility of detergent (Table 1); type: physicochemical
[4] = test system: leucine transporter (LeuT); test: LeuT structural stability: [3H]-Leu binding by scintillation proximity assay (SPA); type: biochemical, Aquifex aeolicus; conditions: CMC+0.04 wt % or CMC+0.2 wt %, room temperature, 13-day incubation, [3H]-Leu SPA
Experimental: Experiments were performed to measure the structural stability of the LeuT protein by TSMs, TTGs and TEMs. Each amphiphilic compound was used at a concentration of (a) CMC+0.04 wt % or (b) CMC+0.2 wt %, and the substrate binding properties of LeuT were measured using [^3H]-Leu via scintillation proximity assay (SPA). The measurement was performed at regular intervals over the course of a 13-day and 12-day incubation at room temperature, respectively.
Specifically, a wild-type leucine transporter (LeuT) derived from the thermophilic bacterium Aquifex aeolicus was purified by a previously described method (Nature 1998, 392, 353-358 by G. Deckert et al.). LeuT was expressed in E. coli C41 (DE3) transformed with pET16b encoding the C-terminal 8×His-tagged transporter (expression plasmids were provided from Dr E. Gouaux, Vollum Institute, Portland, Oregon, USA). In summary, after a bacterial membrane was isolated and solubilized in 1 wt % DDM, the protein was bound to Ni^2+-NTA resin (Life Technologies, Denmark), and eluted in 20 mM Tris-HCl (pH 8.0), 1 mM NaCl, 199 mM KCl, 0.05% (w/v) DDM and 300 mM imidazole. Then, the purified LeuT (0.5 mg/ml) was diluted with buffers supplemented with TSMs, TTGs, TEMs or DDM at a final concentration of CMC+0.04% (w/v) or CMC+0.2% (w/v) except for DDM and imidazole in the equivalent buffer described above. Protein samples were incubated at room temperature for 13 days, centrifuged at a specified time, and protein properties were confirmed by measuring [^3H]-Leucine binding ability using SPA. SPA was performed with 5 μL of each protein sample in a buffer containing 450 mM NaCl and each of TSMs and TEMs (or DDM). The SPA reaction was performed in the presence of 20 nM [^3H]-Leucine and 1.25 mg/ml copper chelate (His-Tag) YSi beads (PerkinElmer, Denmark). Overall [^3H]-Leucine coupling to each sample was measured using a MicroBeta liquid scintillation counter (Perkin Elmer).

CMC [1]	Rh (nm) [2]	solubility [3]	LeuT substrate binding properties over incubation [4]	Structure (SMILES)
~0.6 mM	2.1 ± 0.56 nm	~10%		CCCCCCCCNc1nc(NCCCCCCCC)nc(NC(CO[C@@H]2O[C@H](CO)[C@@H](O)[C@H](O)[C@H]2O)(CO[C@@H]2O[C@H](CO)[C@@H](O)[C@H](O)[C@H]2O)CO[C@@H]2O[C@H](CO)[C@@H](O)[C@H](O)[C@H]2O)n1 [TTG-A8]
~0.5 mM	2.2 ± 0.20 nm	~10%		CCCCCCCCCNc1nc(NCCCCCCCCC)nc(NC(CO[C@@H]2O[C@H](CO)[C@@H](O)[C@H](O)[C@H]2O)(CO[C@@H]2O[C@H](CO)[C@@H](O)[C@H](O)[C@H]2O)CO[C@@H]2O[C@H](CO)[C@@H](O)[C@H](O)[C@H]2O)n1 [TTG-A9]
~0.3 mM	2.3 ± 0.14 nm	~10%		CCCCCCCCCCNc1nc(NCCCCCCCCCC)nc(NC(CO[C@@H]2O[C@H](CO)[C@@H](O)[C@H](O)[C@H]2O)(CO[C@@H]2O[C@H](CO)[C@@H](O)[C@H](O)[C@H]2O)CO[C@@H]2O[C@H](CO)[C@@H](O)[C@H](O)[C@H]2O)n1 [TTG-A10]
~0.2 mM	2.4 ± 0.11 nm	~10%		CCCCCCCCCCCNc1nc(NCCCCCCCCCCC)nc(NC(CO[C@@H]2O[C@H](CO)[C@@H](O)[C@H](O)[C@H]2O)(CO[C@@H]2O[C@H](CO)[C@@H](O)[C@H](O)[C@H]2O)CO[C@@H]2O[C@H](CO)[C@@H](O)[C@H](O)[C@H]2O)n1 [TTG-A11]
~0.04 mM	2.5 ± 0.07 nm	~5%		CCCCCCCCCCCCNc1nc(NCCCCCCCCCCCC)nc(NC(CO[C@@H]2O[C@H](CO)[C@@H](O)[C@H](O)[C@H]2O)(CO[C@@H]2O[C@H](CO)[C@@H](O)[C@H](O)[C@H]2O)CO[C@@H]2O[C@H](CO)[C@@H](O)[C@H](O)[C@H]2O)n1 [TTG-A12]
~0.02 mM	2.8 ± 0.16 nm	~10%		CCCCCCCSc1nc(NC(CO[C@@H]2O[C@H](CO)[C@@H](O)[C@H](O)[C@H]2O)(CO[C@@H]2O[C@H](CO)[C@@H](O)[C@H](O)[C@H]2O)CO[C@@H]2O[C@H](CO)[C@@H](O)[C@H](O)[C@H]2O)nc(SCCCCCCC)n1 [TTG-T7]
~0.015 mM	2.9 ± 0.09 nm	~10%		CCCCCCCCSc1nc(NC(CO[C@@H]2O[C@H](CO)[C@@H](O)[C@H](O)[C@H]2O)(CO[C@@H]2O[C@H](CO)[C@@H](O)[C@H](O)[C@H]2O)CO[C@@H]2O[C@H](CO)[C@@H](O)[C@H](O)[C@H]2O)nc(SCCCCCCCC)n1 [TTG-T8]

Second part, the compound before the results:

Structure (SMILES)	CMC [1]	Rh (nm) [2]	solubility [3]	LeuT substrate binding properties over incubation [4]
CCCCCCCCCCCOc1nc(OCCCCCCCCCCC)nc(N(CCO[C@@H]2O[C@H](CO)[C@@H](O[C@H]3O[C@H](CO)[C@@H](O)[C@H](O)[C@H]3O)[C@H](O)[C@H]2O)CCO[C@@H]2O[C@H](CO)[C@@H](O[C@H]3O[C@H](CO)[C@@H](O)[C@H](O)[C@H]3O)[C@H](O)[C@H]2O)n1 [TEM-E11]	~0.001 mM	25.2 ± 1.2 nm	~1%	
CCCCCCCCCCSc1nc(SCCCCCCCCCC)nc(N(CCO[C@@H]2O[C@H](CO)[C@@H](O[C@H]3O[C@H](CO)[C@@H](O)[C@H](O)[C@H]3O)[C@H](O)[C@H]2O)CCO[C@@H]2O[C@H](CO)[C@@H](O[C@H]3O[C@H](CO)[C@@H](O)[C@H](O)[C@H]3O)[C@H](O)[C@H]2O)n1 [TEM-T10]	~0.0025 mM	4.3 ± 0.0 nm	~5%	best substrate binding activity
CCCCCCCCCCCSc1nc(SCCCCCCCCCCC)nc(N(CCO[C@@H]2O[C@H](CO)[C@@H](O[C@H]3O[C@H](CO)[C@@H](O)[C@H](O)[C@H]3O)[C@H](O)[C@H]2O)CCO[C@@H]2O[C@H](CO)[C@@H](O[C@H]3O[C@H](CO)[C@@H](O)[C@H](O)[C@H]3O)[C@H](O)[C@H]2O)n1 [TEM-T11]	~0.001 mM	31.8 ± 0.3 nm	~1%	
CCCCCCCOc1nc(NC(CO[C@@H]2O[C@H](CO)[C@@H](O[C@H]3O[C@H](CO)[C@@H](O)[C@H](O)[C@H]3O)[C@H](O)[C@H]2O)CO[C@@H]2O[C@H](CO)[C@@H](O[C@H]3O[C@H](CO)[C@@H](O)[C@H](O)[C@H]3O)[C@H](O)[C@H]2O)nc(OCCCCCCC)n1 [TSM-E7]	~0.04 mM	3.4 ± 0.1 nm	~10%	
CCCCCCCCOc1nc(NC(CO[C@@H]2O[C@H](CO)[C@@H](O[C@H]3O[C@H](CO)[C@@H](O)[C@H](O)[C@H]3O)[C@H](O)[C@H]2O)CO[C@@H]2O[C@H](CO)[C@@H](O[C@H]3O[C@H](CO)[C@@H](O)[C@H](O)[C@H]3O)[C@H](O)[C@H]2O)nc(OCCCCCCCC)n1 [TSM-E8]	~0.02 mM	3.6 ± 0.1 nm	~10%	best substrate binding activity
CCCCCCCCCOc1nc(NC(CO[C@@H]2O[C@H](CO)[C@@H](O[C@H]3O[C@H](CO)[C@@H](O)[C@H](O)[C@H]3O)[C@H](O)[C@H]2O)CO[C@@H]2O[C@H](CO)[C@@H](O[C@H]3O[C@H](CO)[C@@H](O)[C@H](O)[C@H]3O)[C@H](O)[C@H]2O)nc(OCCCCCCCCC)n1 [TSM-E9]	~0.01 mM	4.0 ± 0.1 nm	~10%	
CCCCCCCCCCSc1nc(NC(CO[C@@H]2O[C@H](CO)[C@@H](O[C@H]3O[C@H](CO)[C@@H](O)[C@H](O)[C@H]3O)[C@H](O)[C@H]2O)CO[C@@H]2O[C@H](CO)[C@@H](O[C@H]3O[C@H](CO)[C@@H](O)[C@H](O)[C@H]3O)[C@H](O)[C@H]2O)nc(SCCCCCCCCCC)n1 [TSM-T10]	~0.003 mM	38.2 ± 1.8 nm	~5%	best substrate binding activity
CCCCCCCCCCCSc1nc(NC(CO[C@@H]2O[C@H](CO)[C@@H](O[C@H]3O[C@H](CO)[C@@H](O)[C@H](O)[C@H]3O)[C@H](O)[C@H]2O)CO[C@@H]2O[C@H](CO)[C@@H](O[C@H]3O[C@H](CO)[C@@H](O)[C@H](O)[C@H]3O)[C@H](O)[C@H]2O)nc(SCCCCCCCCCCC)n1 [TSM-T11]	~0.001 mM	94.8 ± 45 nm	~1%	
CCCCCCCCCCCCCCNc1nc(NCCCCCCCCCCCCCC)nc(NC(CO[C@@H]2O[C@H](CO)[C@@H](O)[C@H](O)[C@H]2O)(CO[C@@H]2O[C@H](CO)[C@@H](O)[C@H](O)[C@H]2O)CO[C@@H]2O[C@H](CO)[C@@H](O)[C@H](O)[C@H]2O)n1 [TTG-A14]	~0.008 mM	3.2 ± 0.05 nm	~1%	

Reference: patent publication US12473324B2, “Triazine-based amphiphilic compound and use thereof” (INDUSTRY-UNIVERSITY COOPERATION FOUNDATION HANYANG …, priority 2019, dated 2025)
